Where two headings read alike, the source gives them in different places.
How the values were obtained:
[1] = target: T1, CDK1/Cyclin B (Homo sapiens, UniProt P06493); assay: Enzymatic assay for CDK1 (FRET based LANCE Ultra kinase assay); assay type: biochemical
T1 construct: purchased Invitrogen PR4768C
Summary of the method: (§1)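 TR-FRET (LANCE Ultra) kinase assay at ATP Km, ULight-MBP peptide substrate (68 nM), 8-dose 4-fold compound series in DMSO. Enzymes: […]; 60 min at 23° C., stopped with EDTA plus Eu-anti-phospho-MBP antibody, read 665/615 nm after 60 min.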

[2] = target: T2, CDK2/Cyclin A (Homo sapiens, UniProt P24941); assay: Enzymatic assay for CDK2 (FRET based LANCE Ultra kinase assay); assay type: biochemical
T2 construct: purchased Invitrogen PV6290
Summary of the method: as §1

[3] = target: T3, CDK5/p25 (Homo sapiens, UniProt Q00535); assay: Enzymatic assay for CDK5 (FRET based LANCE Ultra kinase assay); assay type: biochemical
T3 construct: purchased Invitrogen PR8543B
T3 sequence (Q00535 whole entry): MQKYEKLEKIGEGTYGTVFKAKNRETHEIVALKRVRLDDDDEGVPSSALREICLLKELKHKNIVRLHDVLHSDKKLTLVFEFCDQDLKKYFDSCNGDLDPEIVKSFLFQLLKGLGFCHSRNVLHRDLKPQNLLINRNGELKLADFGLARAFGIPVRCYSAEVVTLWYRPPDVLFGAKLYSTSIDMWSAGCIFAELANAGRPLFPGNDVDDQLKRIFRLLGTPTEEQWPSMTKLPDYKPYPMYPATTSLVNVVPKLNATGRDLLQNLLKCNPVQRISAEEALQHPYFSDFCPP
T3 sequence (Q15078 99-307 partner limits assumed): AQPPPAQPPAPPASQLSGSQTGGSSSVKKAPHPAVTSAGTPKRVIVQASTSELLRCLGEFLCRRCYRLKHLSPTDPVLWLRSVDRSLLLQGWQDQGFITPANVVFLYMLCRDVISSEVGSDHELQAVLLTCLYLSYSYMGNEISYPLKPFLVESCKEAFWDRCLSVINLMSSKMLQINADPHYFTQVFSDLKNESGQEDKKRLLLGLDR
Summary of the method: as §1

[4] = target: T4, CDK7/Cyclin H/MNAT1 (Homo sapiens, UniProt P50613); assay: Enzymatic assay for CDK7 (FRET based LANCE Ultra kinase assay); assay type: biochemical
T4 construct: purchased Invitrogen PR6749B
T4 sequence (P50613 whole entry): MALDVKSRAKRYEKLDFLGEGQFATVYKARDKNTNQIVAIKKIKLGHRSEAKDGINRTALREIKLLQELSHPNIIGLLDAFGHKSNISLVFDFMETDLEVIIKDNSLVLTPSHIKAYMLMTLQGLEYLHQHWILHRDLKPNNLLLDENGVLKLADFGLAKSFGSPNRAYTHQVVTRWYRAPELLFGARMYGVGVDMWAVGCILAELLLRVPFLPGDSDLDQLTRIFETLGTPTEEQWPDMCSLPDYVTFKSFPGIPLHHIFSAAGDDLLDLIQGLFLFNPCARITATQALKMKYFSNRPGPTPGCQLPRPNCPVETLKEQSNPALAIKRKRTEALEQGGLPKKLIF
T4 sequence (P51946 whole entry partner): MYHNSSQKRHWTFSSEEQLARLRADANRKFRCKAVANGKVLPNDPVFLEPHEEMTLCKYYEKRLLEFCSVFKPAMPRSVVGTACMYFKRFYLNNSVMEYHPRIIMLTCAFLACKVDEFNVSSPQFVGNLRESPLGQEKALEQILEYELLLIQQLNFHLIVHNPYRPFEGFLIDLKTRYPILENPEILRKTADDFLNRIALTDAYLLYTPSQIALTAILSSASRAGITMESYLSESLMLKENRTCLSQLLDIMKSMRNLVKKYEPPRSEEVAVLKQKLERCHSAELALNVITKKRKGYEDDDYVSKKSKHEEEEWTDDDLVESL
T4 sequence (P51948 whole entry partner): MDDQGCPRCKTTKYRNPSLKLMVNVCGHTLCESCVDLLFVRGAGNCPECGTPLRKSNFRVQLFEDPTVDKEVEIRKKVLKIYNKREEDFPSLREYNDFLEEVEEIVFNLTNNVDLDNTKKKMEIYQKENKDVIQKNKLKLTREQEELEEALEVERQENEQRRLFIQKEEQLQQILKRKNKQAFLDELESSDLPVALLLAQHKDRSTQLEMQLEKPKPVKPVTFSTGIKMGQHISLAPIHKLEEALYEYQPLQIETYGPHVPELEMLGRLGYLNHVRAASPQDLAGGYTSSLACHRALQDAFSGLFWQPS
Summary of the method: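 Inhibition was measured at Km ATP by time-resolved FRET between a Eu anti-phospho antibody and a phosphorylated ULight peptide. The enzyme was the purified CDK7/cyclin complex, and data were curve-fitted.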

[5] = test system: H460; assay: Cellular H460 viability assay (CellTiter-Glo, 72 hours); assay type: cell-based; settings: Homo sapiens, NCI-H460
Summary of the method: (§2)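 CellTiter-Glo luminescence read in duplicate after 72 h compound exposure (37 °C, 5% CO2); DMSO-only control, final DMSO under 0.1%.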

[6] = test system: MV4-11; assay: Cellular MV4-11 viability assay (CellTiter-Glo, 72 hours); assay type: cell-based; settings: Homo sapiens
Summary of the method: as §2

[7] = test system: A2780; assay: Cellular A2780 viability assay (CellTiter-Glo, 72 hours); assay type: cell-based; settings: Homo sapiens
Text: Human T-cell acute lymphoblastic leukemia cell line, MOLT-4 (ATCC, Cat #CRL-1582), Human multiple myeloma cell line, RPMI-8226 (Invitrogen, Cat #22400-089) and MM.1S (ATCC, Cat #CRL-2974), NSCLC (Non-small cell lung cancer) cell line H460 (ATCC, Cat #HTB-177), Human colon colorectal carcinoma cell line HCT116 (ATCC, Cat #CCL-247), Human acute monocytic leukemia cell line MV4-11 (ATCC, Cat #CRL-9591), OVCAR-3 (ATCC, Cat #HTB-161) and A2780 (ECACC, Cat #93112519) were obtained from ATCC. Cells were grown in RPMI-1640 media (Invitrogen, Cat #22400-089) supplemented with 10% FBS (Invitrogen, Cat #10099141) and 1% penicillin/streptomycin (Invitrogen, Cat #15070063) and cultured at 37° C., 5% CO2 in a humidified chamber. All cell lines were routinely tested for mycoplasma.
The effect of the CDK7 inhibitor to inhibit the growth of target cancer cells was evaluated through the 72 hours time period of viability assay. Briefly, the candidate cell line ware plated in 96 well plate at the following density of cells respectively. 1×10^4 cells/well for MOLT-4, RPMI-8226, MV4-11 and MM.1S, 5×10^3 for H460, HCT116 and OVCAR-3 and IX 10^3 for A2780. After 24 hours, the cells were treated with various concentrations of the compound (ranging from 0.0015 uM to 10 uM). DMSO solvent without compound served as a control and final DMSO concentration less than 0.1%. After 72 hours of incubation at 37° C., 5% CO2 incubator, cells were analyzed for the viability using the CellTiter-Glo Luminescent Cell Viability Assay (Promega, Cat #G7570). All viability assays were performed in duplicate and Luminescence was read using an Envision (Perkin Elmer, USA). Data was analyzed using XLfit software.

[8] = read-out: CDK1 enzymatic activity (IC50 activity range)
[9] = read-out: CDK2 enzymatic activity (IC50 activity range)
[10] = read-out: CDK5 enzymatic activity (IC50 activity range)
[11] = read-out: CDK7 enzymatic activity (IC50 activity range)
[12] = read-out: CDK1 enzymatic activity (IC50 range)
[13] = read-out: CDK2 enzymatic activity (IC50 range)
[14] = read-out: CDK5 enzymatic activity (IC50 range)
[15] = read-out: CDK7 enzymatic activity (IC50 range)

T1 sequence (P06493 whole entry): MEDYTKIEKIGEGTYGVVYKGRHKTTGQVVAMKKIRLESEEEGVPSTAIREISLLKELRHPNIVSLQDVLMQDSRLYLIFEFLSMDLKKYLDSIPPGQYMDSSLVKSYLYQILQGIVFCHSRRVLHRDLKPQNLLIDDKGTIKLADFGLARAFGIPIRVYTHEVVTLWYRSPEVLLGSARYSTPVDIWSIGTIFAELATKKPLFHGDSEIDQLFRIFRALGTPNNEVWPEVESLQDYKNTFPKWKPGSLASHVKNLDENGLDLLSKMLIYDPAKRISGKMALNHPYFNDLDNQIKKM
T1 sequence (P14635 whole entry partner): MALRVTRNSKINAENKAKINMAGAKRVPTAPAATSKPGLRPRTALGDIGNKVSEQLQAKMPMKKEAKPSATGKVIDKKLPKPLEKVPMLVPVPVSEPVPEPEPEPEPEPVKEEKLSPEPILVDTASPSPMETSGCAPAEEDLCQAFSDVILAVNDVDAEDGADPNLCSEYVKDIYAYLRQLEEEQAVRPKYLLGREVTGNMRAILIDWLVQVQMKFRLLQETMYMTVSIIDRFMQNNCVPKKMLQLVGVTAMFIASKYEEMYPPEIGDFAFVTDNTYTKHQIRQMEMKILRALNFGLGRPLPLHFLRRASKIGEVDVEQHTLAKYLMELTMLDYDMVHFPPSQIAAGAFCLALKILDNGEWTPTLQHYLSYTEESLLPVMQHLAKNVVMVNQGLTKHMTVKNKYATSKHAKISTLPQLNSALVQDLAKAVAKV

SMILES	IC50 [1, 8] [nM]	IC50 [2, 9] [nM]	IC50 [3, 10] [nM]	CDK1/CDK7: Selectivity of CDK7 inhibition over CDK1 inhibition ([4]; CDK1/CDK7)	CDK2/CDK7: Selectivity of CDK7 inhibition over CDK2 inhibition ([4]; CDK2/CDK7)	CDK5/CDK7: Selectivity of CDK7 inhibition over CDK5 inhibition ([4]; CDK5/CDK7)	IC50 [4, 11] [nM]	IC50 [5] [nM]	IC50 [6] [nM]	IC50 [7] [nM]	IC50 [1, 12] [nM]	IC50 [2, 13] [nM]	IC50 [3, 14] [nM]	CDK1/CDK7: Selectivity of CDK7 inhibition over CDK1 inhibition ([4]; CDK7 over CDK1)	CDK2/CDK7: Selectivity of CDK7 inhibition over CDK2 inhibition ([4]; CDK7 over CDK2)	CDK5/CDK7: Selectivity of CDK7 inhibition over CDK5 inhibition ([4]; CDK7 over CDK5)	IC50 [4, 15] [nM]
CC(C)c1cnn2c(NCc3ccccc3-c3ccc4ccccc4n3)nc(N3CCOCC3)nc12 [Compound 268]	> 1000	> 1000	> 1000	A (A=greater than 200 fold)	A (A=greater than 200 fold)	A (A=greater than 200 fold)	< 100	< 1000	> 10000	1000 to 10000							
CC(C)c1cnn2c(NCc3ccccc3-c3ccc4ccccc4n3)nc(NCC[C@H](O)CN)nc12 [Compound 247]								1000 to 10000	1000 to 10000	1000 to 10000	> 1000	> 1000	> 1000	A (A=greater than 200 fold)	A (A=greater than 200 fold)	A (A=greater than 200 fold)	< 100
CC(C)c1cnn2c(NCc3c(Cl)cccc3N3CC[C@H](C(C)(C)O)C3)nc(N3CCC(N)CC3)nc12 [Compound 250]	> 1000	> 1000	> 1000	A (A=greater than 200 fold)	A (A=greater than 200 fold)	B (B=less than 200 fold, but greater than 20 fold)	< 100	1000 to 10000	1000 to 10000	1000 to 10000							
CC(C)c1cnn2c(NCc3c(Cl)cccc3-n3ccc(C(C)(C)O)n3)nc(Nc3cccc4[nH]ccc34)nc12 [Compound 276]	> 1000	> 1000	> 1000	B (B=less than 200 fold, but greater than 20 fold)	B (B=less than 200 fold, but greater than 20 fold)	B (B=less than 200 fold, but greater than 20 fold)	> 1000		< 1000	1000 to 10000							
CC(C)c1cnn2c(NCc3ccccc3-c3ccc4ccccc4n3)nc(NCC3CCOCC3)nc12 [Compound 267]	> 1000	> 1000	> 1000	B (B=less than 200 fold, but greater than 20 fold)	B (B=less than 200 fold, but greater than 20 fold)	B (B=less than 200 fold, but greater than 20 fold)	100 to 1000	1000 to 10000	> 10000	1000 to 10000							
CC(C)c1cnn2c(NCc3c(Cl)cccc3-c3cc(C(C)(C)O)nn3C)nc(N3CCC(N)CC3)nc12 [Compound 258]	> 1000	> 1000	> 1000	A (A=greater than 200 fold)	A (A=greater than 200 fold)	A (A=greater than 200 fold)	< 100	< 1000	< 1000	≤ 1000							
CC(C)c1cnn2c(NCc3ccccc3-c3ccc4ccccc4n3)nc(O[C@H]3CC[C@@H](O)CC3)nc12 [Compound 272]	> 1000	> 1000	> 1000	A (A=greater than 200 fold)	A (A=greater than 200 fold)	A (A=greater than 200 fold)	< 100	1000 to 10000	1000 to 10000	1000 to 10000							
CCC(O)(CC)c1ccn(-c2cccc(Cl)c2CNc2nc(N3CCC(N)CC3)nc3c(C(C)C)cnn23)n1 [Compound 253]	> 1000	> 1000	> 1000	B (B=less than 200 fold, but greater than 20 fold)	B (B=less than 200 fold, but greater than 20 fold)	B (B=less than 200 fold, but greater than 20 fold)	100 to 1000	1000 to 10000	1000 to 10000	1000 to 10000							
Cc1cn(-c2cccc(Cl)c2CNc2nc(N3CCC(N)CC3)nc3c(C(C)C)cnn23)nc1C(C)(C)O [Compound 256]	> 1000	> 1000	> 1000	A (A=greater than 200 fold)	A (A=greater than 200 fold)	A (A=greater than 200 fold)	< 100	< 1000	< 1000	≤ 1000							
CC(C)c1cnn2c(NCc3ccccc3-c3ccc4ccccc4n3)nc(NC[C@@H](O)CN)nc12 [Compound 248]								< 1000	1000 to 10000	≤ 1000	> 1000	> 1000	> 1000	A (A=greater than 200 fold)	A (A=greater than 200 fold)	A (A=greater than 200 fold)	< 100
CC(C)c1cnn2c(NCc3cccc4ccc(C(C)(C)O)nc34)nc(N3CCC(N)CC3)nc12 [Compound 255]	> 1000	> 1000	100 to 1000	A (A=greater than 200 fold)	A (A=greater than 200 fold)	B (B=less than 200 fold, but greater than 20 fold)	< 100	< 1000	< 1000	≤ 1000							

— patent US11945822B2, “Pyrazolo-triazine and/or pyrazolo-pxrimidine derivatives as selective inhibitor of cyclin dependent kinase” (QURIENT CO., LTD., priority 2018, dated 2024)
